PMC9603901, “Therapeutic Potential of Antimicrobial Peptide PN5 against Multidrug-Resistant E. coli and Anti-Inflammatory Activity in a Septic Mouse Model” (Microbiology Spectrum, 2022)
≈ marks a conversion by molar mass, not a printed value.

Assays:
RAW 264.7 cells [1] = test: MTT cell viability; assay type: cell-based, mouse; conditions: 24 h
Method: (§1) RAW 264.7 cells (mouse macrophage cells) were maintained in high-glucose Dulbecco’s modified Eagle medium (DMEM) (Welgene, Daegu, South Korea) supplemented with 10% fetal bovine serum (FBS) (Gibco) and 1% penicillin at 37°C in humidified 5% CO2. Cells (2 × 10^5 cells well^−1) were seeded into DMEM supplemented with 10% FBS medium in a 96-well plate. The MTT assay was performed after culturing the cells in 96-well plates at a density of 2 × 10^5 cells well^−1, followed by treatment with serially diluted PN5, magainin 2, and melittin. After 24 h, the medium was discarded, and 100 μL DMEM and 10% FBS medium containing 0.5 mg mL^−1 MTT were added to each well. After 4 h of incubation, the medium was discarded and dimethyl sulfoxide was added to each well to solubilize the formazan. The optical densities at 570 and 650 nm (OD570 and OD650, respectively) of the treated cells were compared to those of control cells. The hemolytic activity of the peptides was evaluated as the release of hemoglobin from an 8% mRBC suspension. A 100-μL aliquot of the 8% mRBC suspension was added to the wells of a 96-well plate, and 100 μL of peptide solution in phosphate-buffered saline (PBS) was added at a final peptide concentration of 200 μM. After incubation for 1 h at 37°C with shaking (50 rpm), the suspensions were centrifuged at 1,000 × g for 5 min. The absorbance of the supernatant was measured at 414 nm using a Versa Max microplate reader (Molecular Devices). As a control, no hemolysis and complete hemolysis were determined in PBS and 0.1% Triton X-100, respectively. The degree of hemolysis was calculated using the following equation as described in reference: %hemolysis=[(A414withpeptide-A414withPBS)/(A414with0.1%TritonX-100-A414 with PBS)] × 100

MDR E. coli ASEC 19 = test: microbe, parasite or virus in culture; assay type: cell-based, Escherichia coli; conditions: microdilution, LB, 18 to 24 h, 37°C, three independent experiments
Method: (§2) Bacterial cells were cultured at 37°C in the appropriate culture media with shaking (180 rpm). Luria-Bertani broth (LB) (244620; BD Difco) was used for E. coli ATCC 25922, ASEC strains, and B. subtilis KCTC 2217. Nutrient broth (NB) (234000; BD Difco) was used for P. aeruginosa ATCC 27853, S. Typhimurium KCTC 1926, and A. baumannii KCTC 2508. Tryptic soy broth (TSB) (211825; BD Difco) was used for S. aureus ATCC 25923. Finally, brain heart infusion (BHI) (237500; BD Difco) was used for L. monocytogenes KCTC 3710. The antimicrobial activity of each peptide was determined using microdilution assays. To this end, 2-fold serial dilution series of each peptide (from 1 to 64 μM) were added to duplicate media with 10 mM sodium phosphate buffer (pH 7.4). Fifty microliters of the peptide and antibiotic solution was added to each well of a 96-well plate (32096, surface nontreatment; SPL Life Sciences). Then, 50 μL of 2 × 10^5 CFU mL^−1 of bacteria was added to each well, and the samples were incubated for 18 to 24 h without shaking at 37°C.

MDR E. coli ASEC 4 = test: microbe, parasite or virus in culture; assay type: cell-based, Escherichia coli; conditions: microdilution, LB, 18 to 24 h, 37°C, three independent experiments
Method: as §2

MDR E. coli ASEC 16 = test: microbe, parasite or virus in culture; assay type: cell-based, Escherichia coli; conditions: microdilution, LB, 18 to 24 h, 37°C, three independent experiments
Method: as §2

MDR E. coli ASEC 8 = test: microbe, parasite or virus in culture; assay type: cell-based, Escherichia coli; conditions: microdilution, LB, 18 to 24 h, 37°C, three independent experiments
Method: as §2

MDR E. coli ASEC 2 = test: microbe, parasite or virus in culture; assay type: cell-based, Escherichia coli; conditions: microdilution, LB, 18 to 24 h, 37°C, three independent experiments
Method: as §2

MDR E. coli ASEC 3 = test: microbe, parasite or virus in culture; assay type: cell-based, Escherichia coli; conditions: microdilution, LB, 18 to 24 h, 37°C, three independent experiments
Method: as §2

MDR E. coli ASEC 17 = test: microbe, parasite or virus in culture; assay type: cell-based, Escherichia coli; conditions: microdilution, LB, 18 to 24 h, 37°C, three independent experiments
Method: as §2

MDR E. coli ASEC 9 = test: microbe, parasite or virus in culture; assay type: cell-based, Escherichia coli; conditions: microdilution, LB, 18 to 24 h, 37°C, three independent experiments
Method: as §2

MDR E. coli ASEC 11 = test: microbe, parasite or virus in culture; assay type: cell-based, Escherichia coli; conditions: microdilution, LB, 18 to 24 h, 37°C, three independent experiments
Method: as §2

MDR E. coli ASEC 1 = test: microbe, parasite or virus in culture; assay type: cell-based, Escherichia coli; conditions: microdilution, LB, 18 to 24 h, 37°C, three independent experiments
Method: as §2

MDR E. coli ASEC 15 = test: microbe, parasite or virus in culture; assay type: cell-based, Escherichia coli; conditions: microdilution, LB, 18 to 24 h, 37°C, three independent experiments
Method: as §2

MDR E. coli ASEC 5 = test: microbe, parasite or virus in culture; assay type: cell-based, Escherichia coli; conditions: microdilution, LB, 18 to 24 h, 37°C, three independent experiments
Method: as §2

MDR E. coli ASEC 14 = test: microbe, parasite or virus in culture; assay type: cell-based, Escherichia coli; conditions: microdilution, LB, 18 to 24 h, 37°C, three independent experiments
Method: as §2

MDR E. coli ASEC 18 = test: microbe, parasite or virus in culture; assay type: cell-based, Escherichia coli; conditions: microdilution, LB, 18 to 24 h, 37°C, three independent experiments
Method: as §2

MDR E. coli ASEC 12 = test: microbe, parasite or virus in culture; assay type: cell-based, Escherichia coli; conditions: microdilution, LB, 18 to 24 h, 37°C, three independent experiments
Method: as §2

MDR E. coli ASEC 7 = test: microbe, parasite or virus in culture; assay type: cell-based, Escherichia coli; conditions: microdilution, LB, 18 to 24 h, 37°C, three independent experiments
Method: as §2

MDR E. coli ASEC 10 = test: microbe, parasite or virus in culture; assay type: cell-based, Escherichia coli; conditions: microdilution, LB, 18 to 24 h, 37°C, three independent experiments
Method: as §2

MDR E. coli ASEC 6 = test: microbe, parasite or virus in culture; assay type: cell-based, Escherichia coli; conditions: microdilution, LB, 18 to 24 h, 37°C, three independent experiments
Method: as §2

MDR E. coli ASEC 13 = test: microbe, parasite or virus in culture; assay type: cell-based, Escherichia coli; conditions: microdilution, LB, 18 to 24 h, 37°C, three independent experiments
Method: as §2

A. baumannii KCTC 2508 = assay type: cell-based, Acinetobacter baumannii; conditions: microdilution, NB, 18 to 24 h, 37°C, three independent experiments
Method: as §2

RAW 264.7 cells [2] = test: IncuCyte Cytotox green time-dependent cytotoxicity; assay type: cell-based, mouse; conditions: 25 μM
Method: An IncuCyte cytotoxicity assay (Essen BioScience, Inc., Ann Arbor, MI, USA) was performed to evaluate time-dependent cytotoxicity. RAW 264.7 cells (2 × 10^5 cells well^−1) were seeded into 96-well culture plates and then treated with peptides and IncuCyte Cytotox green reagent (Essen BioScience, Inc.). Up to 200 μM PN5 and 25 μM melittin were used to treat RAW 264.7 cells, with the concentrations serially diluted by half. […] The cells were stained with IncuCyte Cytotox green reagent. The viability was measured using IncuCyte software (Essen BioScience, Inc.) ([56]).

B. subtilis KCTC 2217 = assay type: cell-based, Bacillus subtilis; conditions: microdilution, LB, 18 to 24 h, 37°C, three independent experiments
Method: as §2

mouse red blood cells = test: Hemolytic activity; assay type: cell-based; conditions: 8% mouse red blood cells, 1 h, 37°C
Method: as §1

[3] = tested on: L. monocytogenes KCTC 3710; assay type: cell-based, Listeria monocytogenes; conditions: microdilution, BHI, 18 to 24 h, 37°C, three independent experiments
Method: as §2

S. Typhimurium KCTC 1926 = assay type: cell-based, Salmonella enterica serovar Typhimurium; conditions: microdilution, NB, 18 to 24 h, 37°C, three independent experiments
Method: as §2

E. coli ATCC 25922 = test: NPN uptake, outer membrane permeability; assay type: cell-based, Escherichia coli; conditions: E. coli ATCC 25922, 4× MIC, 60 min, 10 μM NPN, relative to 0.1% Triton X-100
Method: The ability of PN5 to permeate the outer bacterial membrane was determined based on the uptake of NPN, a fluorescent dye. Briefly, E. coli 25922 cells grown to the logarithmic phase at 37°C were harvested by centrifugation at 6,000 × g and 4°C for 10 min. The bacterial cells were washed twice with 5 mM HEPES buffer (pH 7.4) and resuspended to OD600 of 0.4. NPN was added to the bacterial suspension at a final concentration of 10 μM. Aliquots of the peptides were added to the bacterial suspensions. Background fluorescence was recorded using a fluorescence spectrophotometer. The excitation and emission wavelengths were set to 350 and 420 nm, respectively. The values were converted to percentage of NPN uptake using the equation % NPN uptake = [(Fobs − F0)/(F100 − F0)] × 100, where Fobs is the fluorescence observed at each peptide concentration, F0 is the initial fluorescence of NPN with E. coli in the absence of peptides, and F100 is the fluorescence of NPN upon the addition of 0.1% Triton X-100, which was used as a positive control ([57]).

P. aeruginosa ATCC 27853 = assay type: cell-based, Pseudomonas aeruginosa; conditions: microdilution, NB, 18 to 24 h, 37°C, three independent experiments
Method: as §2

S. aureus ATCC 25923 = assay type: cell-based, Staphylococcus aureus; conditions: microdilution, TSB, 18 to 24 h, 37°C, three independent experiments
Method: as §2

Compound	MIC (MDR E. coli ASEC 16)	MIC (MDR E. coli ASEC 8)	MIC (MDR E. coli ASEC 2)	MIC (MDR E. coli ASEC 3)	MIC (MDR E. coli ASEC 9)	MIC (MDR E. coli ASEC 11)	MIC (MDR E. coli ASEC 1)	MIC (MDR E. coli ASEC 15)	MIC (MDR E. coli ASEC 5)	MIC (MDR E. coli ASEC 14)	MIC (MDR E. coli ASEC 18)	MIC (MDR E. coli ASEC 12)	MIC (MDR E. coli ASEC 7)	MIC (MDR E. coli ASEC 10)	MIC (MDR E. coli ASEC 6)	MIC (MDR E. coli ASEC 13)	MIC (A. baumannii KCTC 2508)	MIC (B. subtilis KCTC 2217)	also measured
CC[C@H](C)[C@H](NC(=O)CN)C(=O)NCC(=O)N[C@@H](C)C(=O)N[C@H](C(=O)N[C@@H](CC(C)C)C(=O)N[C@@H](CCCCN)C(=O)N[C@H](C(=O)N[C@@H](CC(C)C)C(=O)N[C@H](C(=O)N[C@H](C(=O)NCC(=O)N[C@@H](CC(C)C)C(=O)N1CCC[C@H]1C(=O)N[C@@H](C)C(=O)N[C@@H](CC(C)C)C(=O)N[C@H](C(=O)N[C@@H](CO)C(=O)N[C@@H](Cc1c[nH]c2ccccc12)C(=O)N[C@H](C(=O)N[C@@H](CCCCN)C(=O)N[C@@H](CCCNC(=N)N)C(=O)N[C@@H](CCCCN)C(=O)N[C@@H](CCCNC(=N)N)C(=O)N[C@@H](CCC(N)=O)C(=O)N[C@@H](CCC(N)=O)C(N)=O)[C@@H](C)CC)[C@@H](C)CC)[C@@H](C)O)[C@@H](C)O)C(C)C)C(C)C [Melittin]	4 (11.39) μM	4 (11.39) μM	4 (11.39) μM	4 (11.39) μM	4 (11.39) μM	4 (11.39) μM	4 (11.39) μM	4 (11.39) μM	2 (5.69) μM	2 (5.69) μM	4 (11.39) μM	4 (11.39) μM	4 (11.39) μM	4 (11.39) μM	4 (11.39) μM	4 (11.39) μM	2 µM	2 µM	toxicity, MTT assay (RAW 264.7 cells [1]; 6.25 μM): over 50%; MIC (MDR E. coli ASEC 19): 8 (22.77) μM; MIC (MDR E. coli ASEC 4): 8 (22.77) μM; MIC (MDR E. coli ASEC 17): 8 (22.77) μM; cytotoxicity, Cytotox green fluorescence (RAW 264.7 cells [2]): immediately damaged the cells; hemolysis (mouse red blood cells; 3.125 μM, PBS, A414, mean of three experiments): 44.02%; hemolysis (mouse red blood cells; 6.25 μM): 77.24%; MIC [3]: 4 µM (≈ 11.4 µg/mL); MIC (S. Typhimurium KCTC 1926): 4 µM (≈ 11.4 µg/mL)
Magainin 2	8 (19.74) μM	16 (39.47) μM	8 (19.74) μM	16 (39.47) μM	8 (19.74) μM	16 (39.47) μM	16 (39.47) μM	16 (39.47) μM	16 (39.47) μM	4 (9.87) μM	16 (39.47) μM	16 (39.47) μM	8 (19.74) μM	16 (39.47) μM	4 (9.87) μM	16 (39.47) μM	19.74 µg/mL	39.47 µg/mL	toxicity, MTT assay (RAW 264.7 cells [1]; 200 μM): over 50%; NPN uptake (E. coli ATCC 25922): 35.7%; MIC (P. aeruginosa ATCC 27853): 32 µM; MIC (S. aureus ATCC 25923): 39.47 µg/mL
